Results: patent US12528797B2, “Heterocyclic compounds for medical treatment” (C4 Therapeutics, Inc., priority 2019, dated 2026)

These compounds were tested against hCereblon(M1-L442)_hDDB1(M1-H1140) (Homo sapiens (Human), UniProt Q96SW2) (assay: Fluorescence direct binding (tryptophan fluorescence titration)). Settings: 20° C., excitation 280 nm, emission 340 nm, assay buffer 50 mM Hepes 7.4 200 mM NaCl; read-out: Fluorescence h-Cereblon_DDB1 Mean Kd_EQ.
hCereblon(M1-L442)_hDDB1(M1-H1140), sequence (Q96SW2 whole entry): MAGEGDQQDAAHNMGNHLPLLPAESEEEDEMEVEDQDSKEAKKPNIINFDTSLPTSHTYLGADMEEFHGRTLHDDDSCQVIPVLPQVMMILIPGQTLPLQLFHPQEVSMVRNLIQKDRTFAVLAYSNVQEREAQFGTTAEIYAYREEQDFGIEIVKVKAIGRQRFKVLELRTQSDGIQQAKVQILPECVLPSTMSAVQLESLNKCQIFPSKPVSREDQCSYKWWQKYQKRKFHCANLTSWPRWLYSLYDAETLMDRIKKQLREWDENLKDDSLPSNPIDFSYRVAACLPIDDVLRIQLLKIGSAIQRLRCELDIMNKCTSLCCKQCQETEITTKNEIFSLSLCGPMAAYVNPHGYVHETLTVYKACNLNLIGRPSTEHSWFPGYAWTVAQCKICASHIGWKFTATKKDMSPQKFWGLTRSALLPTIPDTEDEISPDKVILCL
hCereblon(M1-L442)_hDDB1(M1-H1140), sequence (Q16531 whole entry partner): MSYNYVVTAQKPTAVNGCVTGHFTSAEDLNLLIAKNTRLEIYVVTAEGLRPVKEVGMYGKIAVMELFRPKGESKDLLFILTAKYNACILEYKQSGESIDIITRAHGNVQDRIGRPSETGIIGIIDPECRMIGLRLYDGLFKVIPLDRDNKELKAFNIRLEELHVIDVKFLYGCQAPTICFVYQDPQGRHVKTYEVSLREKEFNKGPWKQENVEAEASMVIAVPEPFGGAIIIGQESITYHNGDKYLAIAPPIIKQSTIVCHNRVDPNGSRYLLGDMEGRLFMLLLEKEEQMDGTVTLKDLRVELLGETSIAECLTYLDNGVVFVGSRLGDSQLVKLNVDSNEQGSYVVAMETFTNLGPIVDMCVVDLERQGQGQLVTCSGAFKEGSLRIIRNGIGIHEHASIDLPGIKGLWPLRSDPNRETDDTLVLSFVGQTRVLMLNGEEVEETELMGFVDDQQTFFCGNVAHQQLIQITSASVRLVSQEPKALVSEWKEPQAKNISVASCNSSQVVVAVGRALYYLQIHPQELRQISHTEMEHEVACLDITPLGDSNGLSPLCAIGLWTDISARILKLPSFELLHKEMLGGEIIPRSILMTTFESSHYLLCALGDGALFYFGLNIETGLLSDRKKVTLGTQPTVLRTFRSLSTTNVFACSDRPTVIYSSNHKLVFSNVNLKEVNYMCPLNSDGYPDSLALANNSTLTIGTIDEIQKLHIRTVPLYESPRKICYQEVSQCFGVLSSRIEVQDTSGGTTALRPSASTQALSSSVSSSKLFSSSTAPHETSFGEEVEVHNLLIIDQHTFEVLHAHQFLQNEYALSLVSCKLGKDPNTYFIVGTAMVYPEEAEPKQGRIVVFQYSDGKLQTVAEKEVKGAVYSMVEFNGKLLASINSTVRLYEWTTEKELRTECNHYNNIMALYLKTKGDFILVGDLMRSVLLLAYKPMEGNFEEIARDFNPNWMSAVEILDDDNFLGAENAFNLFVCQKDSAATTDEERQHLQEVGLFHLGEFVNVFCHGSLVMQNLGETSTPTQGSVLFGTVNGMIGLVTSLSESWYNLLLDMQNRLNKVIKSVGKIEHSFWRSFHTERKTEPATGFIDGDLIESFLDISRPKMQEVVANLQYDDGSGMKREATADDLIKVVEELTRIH
Description: Fluorescence Direct Binding Protocol
Determination of the affinities of compounds to protein containing one or more tryptophan is measurable by monitoring the fluorescence emission in direct mode. The measurements depending on the protein available amounts are performed either manually in a cuvette on ISS-PC1 photon counting spectrofluorometer or automatically in well plates on a fluorescence plate reader device. Fluorescence titrations are performed at 20° C. in the chosen binding assay buffer by using a defined constant protein concentration against ligand concentration variations. Small aliquots of known ligand concentration solubilized in DMSO were added and the fluorescence, excited at 280 nm, was recorded at 340 nm. The fluorescence intensity was corrected for protein dilution and for the filter effect (Birdsall et al.). The corrected fluorescence intensity was plotted against the ligand concentration and fitted using a four-parameter sigmoidal function, from which the equilibrium dissociation constant Kd was computed using the law of mass action assuming a 1:1 protein-ligand complex (Eftink, 1997).
• 1) Optimization of measurement parameters to minimize protein consumption and to minimize the dilution effect and the DMSO content • 2) Titration measurements of the protein against ligand by at least 12 titration steps to obtain a good s-curve fit • 3) Repeat the same titration measurements with the ligand alone to enable correction • 4) Check the stability of the protein once by titration against DMSO alone • 5) Determination of the molar extinction coefficients of the ligand at 280 and 340 nm with help of an UV-spectrophotometer • 6) Use Excel template for the correction of the measured raw data Use GraphPad Prism software for the quadratic binding fit and the KD evaluation.
For `O=C(Nc1ccc2[nH]c(=O)oc2c1)c1ccccc1` [Example 1, N-(2-Oxo-3H-1,3-benzoxazol-6-yl)benzamide], the Kd was 4 nM. `O=C1Cc2cc(NC(=O)c3ccco3)ccc2N1` [Example 2, N-(2-Oxoindolin-5-yl)furan-2-carboxamide] was tested, and the Kd was 7 nM. In the case of `Cc1ccccc1OCC(=O)Nc1ccc2[nH]c(=O)sc2c1` [Example 3, 2-(2-Methylphenoxy)-N-(2-oxo-3H-1,3-benzothiazol-6-yl)acetamide], the Kd is reported as 14 nM. With `CNC(=O)c1ccc2c(c1)nc(C(C)C)n2-c1ccc2c(c1)NC(=O)C2` [Example 4, 2-Isopropyl-N-methyl-1-(2-oxoindolin-6-yl)benzimidazole-5-carboxamide] the Kd was 2 nM. Compound `CNC(=O)c1ccc2c(c1)nc(C(C)C)n2-c1ccc2c(c1)CC(=O)N2` [Example 5, 2-Isopropyl-N-methyl-1-(2-oxoindolin-5-yl)benzimidazole-5-carboxamide] has a Kd of 3 nM. In the case of `Nc1ccccc1Nc1ccc2[nH]c(=O)sc2c1` [Example 6, 6-(2-Aminoanilino)-3H-1,3-benzothiazol-2-one], the Kd is reported as under 1 nM. In the case of `CC(C)c1nc2ccccc2n1-c1ccc2[nH]c(=O)sc2c1` [Example 7, 6-(2-Isopropylbenzimidazol-1-yl)-3H-1,3-benzothiazol-2-one], the Kd is reported as 19 nM. Work on `Nc1ccccc1Nc1ccc2[nH]c(=O)oc2c1` [Example 8, 6-(2-Aminoanilino)-3H-1,3-benzoxazol-2-one] yielded a Kd of 8 nM. Compound `CC(C)c1nc2ccccc2n1-c1ccc2[nH]c(=O)oc2c1` [Example 9, 6-(2-Isopropylbenzimidazol-1-yl)-3H-1,3-benzoxazol-2-one] has a Kd of 108 nM. Work on `O=C1Cc2cc(C(=O)Nc3ccccc3)ccc2N1` [Example 10, 2-Oxo-N-phenylindoline-5-carboxamide] yielded a Kd of 91 nM. With `O=C(Nc1ccccc1)c1ccc2[nH]c(=O)oc2c1` [Example 11, 2-Oxo-N-phenyl-3H-1,3-benzoxazole-6-carboxamide] the Kd was 54 nM. `CC(=O)N1CCC(NC(=O)c2ccc3[nH]c(=O)oc3c2)CC1` [Example 12, N-(1-Acetyl-4-piperidyl)-2-oxo-3H-1,3-benzoxazole-6-carboxamide] showed a Kd of 6 nM. For `O=C(c1ccc2[nH]c(=O)oc2c1)N1CCc2ccccc21` [Example 13, 6-(Indoline-1-carbonyl)-3H-1,3-benzoxazol-2-one], the Kd was 4 nM. In the case of `O=C(c1ccc2[nH]c(=O)oc2c1)N1CCc2cccnc21` [Example 14, 6-(2,3-Dihydropyrrolo[2,3-b]pyridine-1-carbonyl)-3H-1,3-benzoxazol-2-one], the Kd is reported as 24 nM. `O=C(Nc1ccccc1)c1ccc2[nH]c(=O)sc2c1` [Example 15, 2-Oxo-N-phenyl-3H-1,3-benzothiazole-6-carboxamide] was tested, and the Kd was 79 nM. `O=C(c1ccc2[nH]c(=O)sc2c1)N1CCc2ccccc21` [Example 16, 6-(Indoline-1-carbonyl)-3H-1,3-benzothiazol-2-one] showed a Kd of 28 nM. `O=C1Cc2cc(C(=O)N3CCc4ccccc43)ccc2N1` [Example 17, 5-(Indoline-1-carbonyl)indolin-2-one] showed a Kd of 15 nM. In the case of `O=C(Nc1ccccc1)c1cnc2[nH]c(=O)oc2c1` [Example 18, 2-Oxo-N-phenyl-3H-oxazolo[4,5-b]pyridine-6-carboxamide], the Kd is reported as 24 nM. Work on `CC(=O)N1CCC(NC(=O)c2cnc3[nH]c(=O)oc3c2)CC1` [Example 19, N-(1-Acetyl-4-piperidyl)-2-oxo-3H-oxazolo[4,5-b]pyridine-6-carboxamide] yielded a Kd of 7 nM. With `O=C1Cc2cc(C(=O)N3CCc4ccccc43)cnc2N1` [Example 20, 5-(Indoline-1-carbonyl)-1,3-dihydropyrrolo[2,3-b]pyridin-2-one] the Kd was 13 nM. For `CC(C)c1nc2ccccc2n1-c1ccc2c(c1)C(F)(F)C(=O)N2` [Example 21, 3,3-Difluoro-5-(2-isopropylbenzimidazol-1-yl)indolin-2-one], the Kd was under 1 nM. `O=C(c1ccc2[nH]c(=O)oc2c1)N1Cc2cccc(O)c2C1` [Example 22, 6-(4-Hydroxyisoindoline-2-carbonyl)-3H-1,3-benzoxazol-2-one] gave a Kd of 2 nM. Work on `O=C(c1ccc2[nH]c(=O)oc2c1)N1Cc2cccc([N+](=O)[O-])c2C1` [Example 23, 6-(4-Nitroisoindoline-2-carbonyl)-3H-1,3-benzoxazol-2-one] yielded a Kd of 14 nM. `O=C(Nc1ccc2c(c1)C(F)(F)C(=O)N2)C1CCCc2ccccc21` (stereo not drawn) [Example 24, N-(3,3-difluoro-2-oxo-indolin-5-yl)tetralin-1-carboxamide] was tested, and the Kd was 28 nM. `O=C(Nc1ccc2c(c1)C(F)(F)C(=O)N2)c1coc2ccccc12` [Example 25, N-(3,3-difluoro-2-oxo-indolin-5-yl)benzofuran-3-carboxamide] was tested, and the Kd was 52 nM. In the case of `CNC(=O)c1ccc2c(c1)nc(C(C)C)n2-c1cnc2c(c1)CC(=O)N2` [Example 26, 2-Isopropyl-N-methyl-1-(2-oxo-1,3-dihydropyrrolo[2,3-b]pyridin-5-yl)benzimidazole-5-carboxamide], the Kd is reported as 7 nM. `CC(C)c1nc2ccccc2n1-c1cnc2c(c1)CC(=O)N2` [Example 27, 5-(2-Isopropylbenzimidazol-1-yl)-1,3-dihydropyrrolo[2,3-b]pyridin-2-one] gave a Kd of under 1 nM.
